How the values were obtained:
[1] = molecular target: Muscarinic acetylcholine receptor; assay: Muscarinic acetylcholine receptor binding assay was conducted using [3H]cis-methyldioxolane (CMD) to label agonist sites in membrane preparations from rat neocortex
[2] = molecular target: T1, Muscarinic acetylcholine receptor M1 (Homo sapiens, UniProt P11229); assay: biochemical; type: cell-based, CHO
T1 sequence (P11229 whole entry): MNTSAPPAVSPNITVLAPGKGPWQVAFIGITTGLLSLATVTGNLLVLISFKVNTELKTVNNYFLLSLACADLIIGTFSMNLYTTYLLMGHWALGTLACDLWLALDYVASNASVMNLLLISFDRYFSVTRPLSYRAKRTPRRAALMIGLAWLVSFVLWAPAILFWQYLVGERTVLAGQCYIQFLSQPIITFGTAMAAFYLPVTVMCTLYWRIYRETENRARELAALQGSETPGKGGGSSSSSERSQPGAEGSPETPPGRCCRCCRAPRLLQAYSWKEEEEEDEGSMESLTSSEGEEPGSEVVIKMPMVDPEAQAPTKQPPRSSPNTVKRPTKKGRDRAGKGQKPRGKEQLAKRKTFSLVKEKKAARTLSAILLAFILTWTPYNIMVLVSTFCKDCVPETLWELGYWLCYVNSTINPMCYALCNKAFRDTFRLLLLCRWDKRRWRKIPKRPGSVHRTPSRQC
Description: Binding affinity of [3H]-QNB to CHO cells expressing human Muscarinic acetylcholine receptor M1

[3] = molecular target: Muscarinic acetylcholine receptor M3 (Homo sapiens) (UniProt P20309); assay: Inositol phosphate(PI) accumulation in CHO cells expressing Muscarinic acetylcholine receptor M3 as maximal response at 100 uM relative to carbachol; type: functional, cell-based
[4] = molecular target: Muscarinic acetylcholine receptor; assay: Muscarinic acetylcholine receptor binding assay was conducted using [3H]quinuclidinyl benzilate (QNB) to label antagonist sites in membrane preparations from rat neocortex
[5] = molecular target: T2, Muscarinic acetylcholine receptor M5 (Homo sapiens) (UniProt P08912); assay: Inositol phosphate(PI) accumulation in CHO cells expressing Muscarinic acetylcholine receptor M5 as maximal response at 100 uM relative to carbachol; type: functional, cell-based
T2 sequence (whole entry): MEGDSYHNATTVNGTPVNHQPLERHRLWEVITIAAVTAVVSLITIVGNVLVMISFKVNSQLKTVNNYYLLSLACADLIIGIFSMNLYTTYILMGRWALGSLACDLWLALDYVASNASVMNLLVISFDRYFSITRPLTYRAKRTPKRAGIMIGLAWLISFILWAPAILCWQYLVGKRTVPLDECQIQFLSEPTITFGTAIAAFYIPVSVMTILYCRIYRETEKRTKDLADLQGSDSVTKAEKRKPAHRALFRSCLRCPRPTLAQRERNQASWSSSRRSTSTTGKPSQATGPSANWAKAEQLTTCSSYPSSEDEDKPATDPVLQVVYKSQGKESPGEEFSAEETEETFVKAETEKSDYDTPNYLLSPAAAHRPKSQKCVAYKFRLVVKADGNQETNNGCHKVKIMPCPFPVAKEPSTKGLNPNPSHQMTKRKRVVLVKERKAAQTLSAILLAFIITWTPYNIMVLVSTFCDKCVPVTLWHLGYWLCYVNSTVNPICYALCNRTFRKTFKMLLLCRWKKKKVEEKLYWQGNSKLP

[6] = molecular target: T3, Muscarinic acetylcholine receptor M2 (Homo sapiens, UniProt P08172); assay: Binding affinity of [3H]QNB to CHO cells expressing human Muscarinic acetylcholine receptor M2; type: cell-based
T3 sequence (P08172 whole entry): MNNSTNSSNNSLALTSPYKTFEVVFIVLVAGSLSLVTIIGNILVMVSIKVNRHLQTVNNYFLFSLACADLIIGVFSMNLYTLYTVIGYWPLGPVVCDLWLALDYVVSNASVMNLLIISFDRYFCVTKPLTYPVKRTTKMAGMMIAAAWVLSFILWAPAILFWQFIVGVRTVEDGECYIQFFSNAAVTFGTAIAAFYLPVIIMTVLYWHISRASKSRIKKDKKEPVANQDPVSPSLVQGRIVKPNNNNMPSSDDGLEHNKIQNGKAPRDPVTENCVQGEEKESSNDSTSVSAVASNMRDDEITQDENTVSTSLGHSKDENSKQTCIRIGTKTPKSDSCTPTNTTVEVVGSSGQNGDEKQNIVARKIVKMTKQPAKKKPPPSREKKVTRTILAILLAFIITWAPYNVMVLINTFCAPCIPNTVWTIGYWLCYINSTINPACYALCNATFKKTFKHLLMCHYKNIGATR

[7] = molecular target: T4, Muscarinic acetylcholine receptor M1 (Homo sapiens) (UniProt P11229); assay: Stimulation of inositol phosphate(PI) accumulation in CHO cells expressing Muscarinic acetylcholine receptor M1 as maximal response at 100 uM relative to carbachol; type: functional, cell-based
T4 sequence (whole entry): T1 sequence (P11229 whole entry)

[8] = molecular target: Muscarinic acetylcholine receptor (Rattus norvegicus) (UniProt P08482+P08483+P08485+P08911+P10980); assay: Ratio of QNB binding to CMD binding was evaluated; type: protein assay
[9] = molecular target: T5, Muscarinic acetylcholine receptor M4 (Homo sapiens) (UniProt P08173); assay: Maximal response obtained for each drug normalized to effect of carbachol in Muscarinic acetylcholine receptor M4; type: functional
T5 sequence (whole entry): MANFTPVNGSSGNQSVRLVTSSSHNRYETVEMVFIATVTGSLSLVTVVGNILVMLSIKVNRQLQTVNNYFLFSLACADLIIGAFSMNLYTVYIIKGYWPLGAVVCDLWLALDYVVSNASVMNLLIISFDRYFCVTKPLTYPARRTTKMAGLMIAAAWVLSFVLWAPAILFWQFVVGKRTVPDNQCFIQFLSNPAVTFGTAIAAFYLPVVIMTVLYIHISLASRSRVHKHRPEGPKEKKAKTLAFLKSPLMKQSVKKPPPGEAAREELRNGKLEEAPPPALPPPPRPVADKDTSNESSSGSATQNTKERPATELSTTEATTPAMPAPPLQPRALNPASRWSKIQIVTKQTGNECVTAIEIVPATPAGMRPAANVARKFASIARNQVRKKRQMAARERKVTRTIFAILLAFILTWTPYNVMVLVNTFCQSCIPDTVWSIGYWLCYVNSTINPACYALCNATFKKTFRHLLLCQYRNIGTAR

[10] = molecular target: Muscarinic acetylcholine receptor M3 (Homo sapiens) (UniProt P20309); assay: Maximal response obtained for each drug normalized to effect of carbachol in Muscarinic acetylcholine receptor M3; type: functional
[11] = molecular target: T6, Muscarinic acetylcholine receptor M2 (Homo sapiens) (UniProt P08172); assay: Amplification of transfected NIH3T3 cells was measured in Muscarinic acetylcholine receptor M2 required to produce half maximal effect; type: functional, cell-based
T6 sequence (whole entry): T3 sequence (P08172 whole entry)

[12] = molecular target: Muscarinic acetylcholine receptor M3 (Homo sapiens) (UniProt P20309); assay: Stimulations of inositol phosphate(PI) accumulation in transfected CHO cells in Muscarinic acetylcholine receptor M3 values are the maximal response obtained from the compound tested at 100 uM normalized to the effect of carbachol.; type: functional, cell-based
[13] = molecular target: T2, Muscarinic acetylcholine receptor M5 (Homo sapiens); assay: Maximal response obtained for each drug normalized to effect of carbachol in Muscarinic acetylcholine receptor M5; type: functional
[14] = molecular target: T2, Muscarinic acetylcholine receptor M5 (Homo sapiens); assay: Amplification of transfected NIH3T3 cells was measured in Muscarinic acetylcholine receptor M5 required to produce half maximal effect; type: functional, cell-based
[15] = molecular target: T2, Muscarinic acetylcholine receptor M5 (Homo sapiens); assay: Stimulations of inositol phosphate(PI) accumulation in transfected CHO cells in Muscarinic acetylcholine receptor M5 values are the maximal response obtained from the compound tested at 100 uM normalized to the effect of carbachol.; type: functional, cell-based
[16] = molecular target: T6, Muscarinic acetylcholine receptor M2 (Homo sapiens); assay: Maximal response obtained for each drug normalized to effect of carbachol in Muscarinic acetylcholine receptor M2; type: functional
[17] = molecular target: T4, Muscarinic acetylcholine receptor M1 (Homo sapiens); assay: Maximal response obtained for each drug normalized to effect of carbachol in Muscarinic acetylcholine receptor M1; type: functional
[18] = molecular target: T4, Muscarinic acetylcholine receptor M1 (Homo sapiens); conditions: NIH3T3
Description: Amplification of transfected NIH3T3 cells was measured in Muscarinic acetylcholine receptor M1 required to produce half maximal effect

[19] = molecular target: T4, Muscarinic acetylcholine receptor M1 (Homo sapiens); conditions: CHO
[20] = molecular target: Muscarinic acetylcholine receptor M3 (Homo sapiens) (UniProt P20309); conditions: NIH3T3
Description: Amplification of transfected NIH3T3 cells was measured in Muscarinic acetylcholine receptor M3 required to produce half maximal effect

Muscarinic acetylcholine receptor M3 (Homo sapiens), sequence (P20309 whole entry, looked up): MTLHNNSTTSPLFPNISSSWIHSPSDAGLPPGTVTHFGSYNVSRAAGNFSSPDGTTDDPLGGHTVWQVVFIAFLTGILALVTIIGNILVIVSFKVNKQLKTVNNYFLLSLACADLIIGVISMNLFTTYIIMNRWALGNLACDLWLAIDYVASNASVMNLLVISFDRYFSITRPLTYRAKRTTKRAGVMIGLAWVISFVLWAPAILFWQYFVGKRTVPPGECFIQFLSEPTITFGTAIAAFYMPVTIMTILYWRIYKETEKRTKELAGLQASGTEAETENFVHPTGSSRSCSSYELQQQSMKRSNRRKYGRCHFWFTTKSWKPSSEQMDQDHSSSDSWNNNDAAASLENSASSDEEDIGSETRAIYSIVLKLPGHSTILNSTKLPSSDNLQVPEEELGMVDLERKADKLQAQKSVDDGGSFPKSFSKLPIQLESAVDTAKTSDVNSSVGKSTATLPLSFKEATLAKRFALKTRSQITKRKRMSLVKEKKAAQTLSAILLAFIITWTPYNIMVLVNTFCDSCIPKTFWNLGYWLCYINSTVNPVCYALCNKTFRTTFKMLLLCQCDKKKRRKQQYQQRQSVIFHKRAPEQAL

SMILES | IC50 [1] [nM] | IC50 [2] [µM] | IC50 [4] [nM] | CCh [5] [%] | IC50 [6] [µM] | CCh [7] [%] | Ratio [8] | also measured
C(#Cc1ccsc1)CO/N=C1\CN2CCC1C2 (configuration not stated) | 16.5 | 4.84 | 2690 | 13 | 15.2 | 54 | 163 | CCh [3]: 19%
Fc1ccc(C#CCO/N=C2\CN3CCC2C3)cc1 (configuration not stated) | – | 5.46 | – | 13 | 27.2 | 57 | 204 | CCh [3]: 10%
C#CCO/N=C1\CN2CCC1C2 (configuration not stated) | 3.5 | 4.89 | 4350 | 42 | 6.03 | 95 | 1240 | –
C#C/C(C)=C\CO/N=C1\CN2CCC1C2 (configuration not stated) | 1.02 | 1.58 | 806 | – | 1.9 | – | 790 | –
C(#Cc1cccs1)CO/N=C1\CN2CCC1C2 (configuration not stated) | 13.5 | 1.62 | 2330 | – | 8.9 | 86 | 173 | –
CO/N=C1\CN2CCC1C2 (configuration not stated) | 18.1 | 26.9 | 24200 | – | 16.8 | – | 1340 | –
Clc1ccc(C#CCO/N=C2\CN3CCC2C3)cc1 (configuration not stated) | – | 4.01 | – | 0 | 24.7 | 48 | 119 | –
C#CCC#CCC#CCO/N=C1\CN2CCC1C2 (configuration not stated) | 8.04 | – | 958 | – | – | – | 119 | –
O=[N+]([O-])c1cccc(C#CCO/N=C2\CN3CCC2C3)c1 (configuration not stated) | – | 15.1 | – | – | 46.6 | – | 227 | –
C#C/C(C)=C/CO/N=C1\CN2CCC1C2 (configuration not stated) | 4.29 | 2.59 | 2060 | – | 6.01 | – | 480 | –
Cc1ccc(C#CCO/N=C2\CN3CCC2C3)cc1 (configuration not stated) | – | 14.1 | – | – | 38.6 | – | 124 | –
C/C(C#Cc1ccccc1)=C\CO/N=C1\CN2CCC1C2 (configuration not stated) | – | 1.09 | – | – | 7.93 | – | 7.93 | –
C#CCC#CCO/N=C1\CN2CCC1C2 (configuration not stated) | 22 | 8.83 | 8834 | – | 8.07 | – | 402 | –
COc1cccc(C#CCO/N=C2\CN3CC[C@H]2C3)c1 | – | – | – | – | – | – | – | CCh [9]: 65%; CCh [10]: 57%; ED50 [11]: 1.53 µM; Stimulation [12]: 5.2%; CCh [13]: 60%; ED50 [14]: 2.59 µM; Stimulation [15]: 1.9%; CCh [16]: 33%; CCh [17]: 51%; ED50 [18]: 1.6 µM; ED50 [19]: 3.7 µM; ED50 [20]: 4.57 µM
C#C/C=C/CO/N=C1\CN2CCC1C2 (configuration not stated) | 34.7 | 0.216 | 13800 | – | 0.519 | – | 398 | –
COc1ccccc1C#CCO/N=C1\CN2CCC1C2 (configuration not stated) | – | 16.6 | – | – | 69.3 | – | 80.7 | –
Fc1cccc(C#CCO/N=C2\CN3CCC2C3)c1 (configuration not stated) | – | 9.85 | – | 9 | 47.9 | 54 | 132 | CCh [3]: 12%
C=CCO/N=C1\CN2CCC1C2 (configuration not stated) | 52 | 4.05 | 4770 | – | 10.8 | – | 91.7 | –
Fc1ccccc1C#CCO/N=C1\CN2CCC1C2 (configuration not stated) | – | 4.03 | – | 6 | 20.8 | 45 | 160 | CCh [3]: 2%
Clc1ccccc1C#CCO/N=C1\CN2CCC1C2 (configuration not stated) | – | 1.12 | – | 4 | 4.01 | 32 | 107 | CCh [3]: 6%
